Source: patent US10597388B2, “Pyridazinone herbicides” (FMC CORPORATION, priority 2014, dated 2020)

What was measured:
Format in all cases: in vivo
[1] = system: barnyardgrass (Echinochloa crus-galli); assay: Test A greenhouse herbicide test, pre- and postemergence
How it was run: (§1)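 Seeds in loam–sand blend received a preemergence directed soil spray; plants at 2–10 cm, one- to two-leaf stage, received postemergence sprays. Compounds in a non-phytotoxic solvent with surfactant. After about 10 d in a greenhouse, injury rated visually versus untreated controls on a 0–100 scale (100 = complete control).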

[2] = system: kochia (Kochia scoparia); assay: as above
How it was run: as §1

[3] = system: pigweed (Amaranthus retroflexus); assay: as above
How it was run: as §1

[4] = system: ragweed (common ragweed, Ambrosia elatior); assay: as above
How it was run: as §1

[5] = system: barnyardgrass (Echinochloa crus-galli); assay: Test B flooded paddy test; details: 250 g ai/ha, Flood; visual rating on scale of 0 to 100 where 0 is no effect and 100 is complete control; 13 to 15 d after treatment
How it was run: (§2)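 Plants grown to the 2-leaf stage. At treatment, pots were flooded to 3 cm above the soil, compound was applied directly to the paddy water, and that depth was held throughout. After 13 to 15 d in the greenhouse, response was rated visually against controls on a 0 (no effect) to 100 (complete control) scale.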

[6] = system: ducksalad (Heteranthera limosa); assay: Test B flooded paddy test; details: 250 g ai/ha, Flood; visual rating on scale of 0 to 100 where 0 is no effect and 100 is complete control; 13 to 15 d after treatment
How it was run: as §2

[7] = system: rice (Oryza sativa); assay: Test B flooded paddy test; details: 250 g ai/ha, Flood; visual rating on scale of 0 to 100 where 0 is no effect and 100 is complete control; 13 to 15 d after treatment
How it was run: as §2

[8] = system: sedge, umbrella (small-flower umbrella sedge, Cyperus difformis); assay: Test B flooded paddy test; details: 250 g ai/ha, Flood; visual rating on scale of 0 to 100 where 0 is no effect and 100 is complete control; 13 to 15 d after treatment
How it was run: as §2

[9] = system: chickweed (common chickweed, Stellaria media); assay: Test C greenhouse herbicide test, postemergence
How it was run: (§3)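 Test chemicals were applied postemergence to greenhouse plants at the 1- to 4-leaf stage (2–18 cm tall) growing in peat/vermiculite medium. After 13–15 d, injury was rated visually against untreated controls on a 0–100 scale (0 = no effect, 100 = complete control).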

[10] = system: kochia (Kochia scoparia); assay: Test C greenhouse herbicide test, postemergence
How it was run: as §3

[11] = system: oat, wild (wild oat, Avena fatua); assay: Test C greenhouse herbicide test, postemergence
How it was run: as §3

[12] = Postemergence, 125 g ai/ha, 0 to 100 scale where 0 is no effect and 100 is complete control
[13] = Postemergence, 500 g ai/ha, 0 to 100 scale, 0 is no effect, 100 is complete control
[14] = Preemergence, 125 g ai/ha, 0 to 100 scale where 0 is no effect and 100 is complete control
[15] = Preemergence, 500 g ai/ha, 0 to 100 scale, 0 no effect, 100 complete control
[16] = Postemergence, 31 g ai/ha, 0 to 100 scale (0 no effect, 100 complete control)
[17] = Postemergence, 125 g ai/ha, scale 0 to 100, 0 is no effect, 100 is complete control
[18] = Postemergence, 250 g ai/ha, scale 0 to 100, 0 no effect, 100 complete control, 13 to 15 d
[19] = postemergence, 62 g ai/ha, scale 0 to 100, 0 no effect, 100 complete control
[20] = Postemergence, 500 g ai/ha, visual rating after approx. 10 d, 0 to 100 scale (0 no effect, 100 complete control)
[21] = Preemergence, 500 g ai/ha, 0 to 100 scale where 0 is no effect and 100 is complete control
[22] = Postemergence, 31 g ai/ha, scale 0 to 100 (0 no effect, 100 complete control)

| SMILES | Plant response rating, Barnyardgrass [1, 12] | Barnyardgrass plant response rating [1, 13] | Barnyardgrass plant response rating [1, 14] | Plant response rating, Kochia [2, 12] | Kochia plant response rating [2, 14] | Plant response rating, Pigweed [3, 12] | Pigweed plant response rating [3, 14] | Plant response rating, Ragweed [4, 12] | Ragweed plant response rating [4, 14] | Plant response rating, Barnyardgrass [5] | Plant response rating, Ducksalad [6] | Plant response rating, Rice [7] | Plant response rating, Sedge, Umbrella [8] | Plant response rating, Chickweed [9, 17] | Plant response rating, Chickweed [9, 18] | Chickweed plant response rating [9, 19] | Plant response rating, Kochia [10, 17] | Plant response rating, Kochia [10, 18] | Plant response rating, Oat, Wild [11, 17] | Plant response rating, Oat, Wild [11, 18] | other results |
| --- | --- | --- | --- | --- | --- | --- | --- | --- | --- | --- | --- | --- | --- | --- | --- | --- | --- | --- | --- | --- | --- |
| Cc1ccc2sc(C)c(-c3c(OC(=O)OC(C)C)c(C)nn(C)c3=O)c2c1 [Compound 66] | 20 | 90 | 20 | 90 | 60 | 80 | 100 | 70 | 80 | 0 | 0 | 0 | 0 | 95 | 95 | 95 | 90 | 98 | 90 | 90 | Plant response rating, Barnyardgrass [1, 15]: 70; Kochia plant response rating [2, 13]: 90; Plant response rating, Kochia [2, 15]: 70; Pigweed plant response rating [3, 13]: 90; Plant response rating, Pigweed [3, 15]: 100; Ragweed plant response rating [4, 13]: 90; Plant response rating, Ragweed [4, 15]: 90; Chickweed plant response rating [9, 16]: 90; Kochia plant response rating [10, 16]: 90; Kochia plant response rating [10, 19]: 90; Oat, Wild plant response rating [11, 16]: 55; Oat, Wild plant response rating [11, 19]: 80 |
| CCc1sc2ccc(C)cc2c1-c1c(O)c(C)nn(C)c1=O [Compound 47] | 40 | 80 | 70 | 90 | 10 | 100 | 70 | 100 | 80 | 0 | 0 | 0 | 0 | 98 | 98 | 90 | 95 | 98 | 30 | 50 | Plant response rating, Barnyardgrass [1, 15]: 90; Kochia plant response rating [2, 13]: 90; Plant response rating, Kochia [2, 15]: 90; Pigweed plant response rating [3, 13]: 100; Plant response rating, Pigweed [3, 15]: 100; Ragweed plant response rating [4, 13]: 100; Plant response rating, Ragweed [4, 15]: 90; Chickweed plant response rating [9, 16]: 90; Kochia plant response rating [10, 16]: 75; Kochia plant response rating [10, 19]: 90; Oat, Wild plant response rating [11, 16]: 5; Oat, Wild plant response rating [11, 19]: 10 |
| CCc1sc2c(C)cc(C)cc2c1-c1c(O)c(C)nn(C)c1=O [Compound 57] | 90 | 100 | 100 | 80 | 100 | 100 | 100 | 100 | 90 | 0 | 0 | 0 | 0 | 95 | 100 | 95 | 70 | 95 | 45 | 60 | Plant response rating, Barnyardgrass [1, 15]: 100; Kochia plant response rating [2, 13]: 100; Plant response rating, Kochia [2, 15]: 100; Pigweed plant response rating [3, 13]: 100; Plant response rating, Pigweed [3, 15]: 100; Ragweed plant response rating [4, 13]: 100; Plant response rating, Ragweed [4, 15]: 100; Chickweed plant response rating [9, 16]: 90; Kochia plant response rating [10, 16]: 50; Kochia plant response rating [10, 19]: 65; Oat, Wild plant response rating [11, 16]: 20; Oat, Wild plant response rating [11, 19]: 35 |
| Cc1nn(C)c(=O)c(-c2c(C)sc3ccc(C(F)(F)F)cc23)c1O [Compound 121] | 30 |  | 20 | 70 | 0 | 90 | 100 | 90 | 60 | 0 | 0 | 0 | 0 | 90 | 98 | 90 | 95 | 95 | 80 | 90 | Plant response rating, Barnyardgrass [1, 20]: 50; Plant response rating, Barnyardgrass [1, 21]: 50; Plant response rating, Kochia [2, 20]: 80; Plant response rating, Kochia [2, 21]: 30; Plant response rating, Pigweed [3, 20]: 90; Plant response rating, Pigweed [3, 21]: 100; Plant response rating, Ragweed [4, 20]: 90; Plant response rating, Ragweed [4, 21]: 80; Plant response rating, Chickweed [9, 22]: 90; Plant response rating, Kochia [10, 22]: 90; Plant response rating, Oat, Wild [11, 22]: 65 |
